What all share (assay type): cell-based
Conditions in all cases: 48 h

One test concerns Fusarium virguliforme. Nature of the test: Fungal growth inhibition assay, F. virguliforme. How it is done: (§1) Spores were isolated from previously sub-cultured plates of Botrytis cinerea, Phytophthora capsici, Fusarium moniliforme, Fusarium viguliforme, Collectotrichum graminicola, and Diplodia maydis. All spores were filtered and collected in a sterile glass bowl to isolate the spores from the mycelia. The isolation and sub-culture plate condition for each pathogen is described below.
Spore isolation for F. virguliforme: A 2-3 week old PDA (pre-mix) plate containing cefotaxime (100 mg/L) and kanamycin (50 mg/L) was removed from 26° C. incubator with a light/dark 12 hour cycle and the mycelia were treated with 5-10 ml of filter sterilized distilled water. The mycelia were scraped to re-suspend the spores. The spores were then collected in a sterile filter bowl containing a fluted piece of filter paper and poured into a conical tube.
(§2) After spore isolation, pathogen spores were counted on a hemocytometer to calculate the spores/ml. In 17% V8 liquid media containing 3 g/L CaCO3, isolated spores were diluted to individual concentrations based on the growth curves at 48 hours of each pathogen. The spore concentrations for each pathogen were as follows: B. cinerea—10,000 sp/ml; P. capsici—300 sp/ml; F. monliforme—500 sp/ml; F. virguliforme—500 sp/ml; C. graminicola—3,000 sp/ml; and D. maydis—3,000 sp/ml.
(§3) Chemistry stocks were dissolved in DMSO at 2.5 mg/ml. Chemistry was diluted in a 96-well stock plate in five-fold dilutions to obtain a final concentration of 50, 10, and 2 ppm in vitro. The final concentration of the positive control after the five-fold dilutions was as follows: soraphen—0.5, 0.1, and 0.02 ppm. Negative controls on each plate included 2% DMSO, water containing spores and media, and a blank for background subtraction.
(§4) In a 96-well plate the spore solution, chemistries, and controls were combined to make the final solution concentrations mentioned above. Upon addition of the chemistry, an OD600 reading was done to assess chemical precipitation. The 96-well plates were incubated in plastic tubs containing wet paper towels under the following conditions, 25° C. in the dark for P. capsici and B. cinerea or 26° C. with light/dark cycle for C. graminicola, D. maydis, F. virguliforme, F. monliforme. Plate readings were repeated at 24 and 48 hrs. Visual ratings were performed at 24 and 48 hrs to check for precipitation and confirm efficacy. Visual and OD600 ratings of the chemistry at 48 hours were compared to the 2% DMSO control to determine the percent of pathogen growth inhibition.

For another test, the system named is Phytophthora capsici. Briefly: Fungal growth inhibition assay, P. capsici.
From the text: as §1
Spore isolation for P. capsici: Three to five days prior to the assay a 2-3 week old V8 (17%)+CaCO3 (3 g/L)+20 g agar plate was removed from a dark 25° C. incubator and cut up into small chunks. One plate was separated into two deep well plates and rinsed with sterile distilled water three times. The cut up pieces were incubated under light in a sterile filter hood with 25 ml of sterile distilled water. On the day of the assay the water was removed and 5-7 ml of fresh sterile distilled water was added. One plate was incubated at 4° C. for 45-60 minutes and then placed at room temperature for about 45-60 minutes. The spores were collected in a sterile filter bowl containing a fluted piece of filter paper. The spores were vortexed in a conical tube for 30-60 seconds to remove the flagella of the zoospores after isolation.
as §2, §3, §4

For a further test, the system named is Fusarium moniloforme. Briefly: Fungal growth inhibition assay, F. moniliforme. How it is done: as §1
Spore isolation for F. moniliforme: A 1 week old PDA (potato dextrose agar, pre-mix) plate was removed from 26° C. incubator with a light/dark 12 hour cycle and the mycelia were treated with 5-10 ml of filter sterilized Triton X 100 (0.05%). The mycelia were scraped to re-suspend the spores. The spores were then collected in a sterile filter bowl containing a fluted piece of filter paper.
as §2, §3, §4

Another test concerns Botrytis cinerea. Nature of the test: Fungal growth inhibition assay, B. cinerea.
From the text: as §1
Spore isolation for B. cinerea: A 2-3 week old V8 (17%)+CaCO3 (3 g/L)+20 g agar plate was removed from room temperature and the mycelia were treated with 5-10 ml of filter sterilized Triton X 100 (0.05%). The mycelia were scraped to re-suspend the spores. The spores were then collected in a sterile filter bowl containing a fluted piece of filter paper and poured into a conical tube.
as §2, §3
In a 96-well plate the spore solution, chemistries, and controls were combined to make the final solution concentrations mentioned above. Upon addition of the chemistry, an OD600 reading was done to assess chemical precipitation. […] Plate readings were repeated at 24 and 48 hrs. […]

Each structure is given as a SMILES string.

In the test with Fusarium virguliforme, `O=C(O)Cc1ccc(-c2nc3ccccc3c(-c3ccccc3)c2Cl)s1` [Formula Ib-ii, 2-(5-(3-chloro-4-phenylquinolin-2-yl)thiophen-2-yl)acetic acid] yielded an inhibition at 2 ppm of 31% and an inhibition at 10 ppm of 41%. Moreover, in the test on Phytophthora capsici, the inhibition at 2 ppm is 18%, the inhibition at 10 ppm was 31% and the inhibition at 50 ppm was found to be 49%. In the test on Fusarium moniloforme, this compound came in with an inhibition at 2 ppm of 39% and an inhibition at 10 ppm of 45%.
Take `O=C(O)Cc1ccc(-c2cc(-c3ccccc3)c3ccccc3n2)s1` [Formula Ib-iv, 2-(5-(4-phenylquinolin-2-yl)thiophen-2-yl)acetic acid]: the inhibition at 2 ppm in the test with Fusarium virguliforme was determined as 4%; in the test with Botrytis cinerea (2 ppm) it was 0%; in the test with Phytophthora capsici it was 0%; in the test with Fusarium moniloforme it was 17%. In addition, the inhibition at 10 ppm in the test with Fusarium virguliforme stood at 29%; in the test on Botrytis cinerea (10 ppm), 1%; in the test with Phytophthora capsici, 11%; in the test on Fusarium moniloforme it was 31%. The results for the inhibition at 50 ppm in the test with Botrytis cinerea (50 ppm), with Phytophthora capsici and in the test on Fusarium moniloforme (50 ppm) were 42%, 80% and 36%, respectively.

In general, inhibition refers to the relative decrease from the control value, in per cent. Lower therefore signals a weak effect.

Source of the values: patent publication US10995070B2, “Acetyl-CoA carboxylase modulators” (Monsanto Technology LLC, priority 2013, dated 2021).
